Square brackets hold non-standard residues; d marks the D form. Peptide text beside a SMILES is read from it. * marks the point of attachment. Dolaproine = CO[C@@H]([C@@H]1CCCN1)[C@@H](C)C(=O)O; Hexanoyl(6-maleimido) = O=C1C=CC(=O)N1CCCCCC(=O)*; Dil = CC[C@H](C)[C@H](NC)[C@@H](CC(=O)O)OC; X1 = C[C@@H](N*)[C@@H](O)c1ccccc1; NMeV = CN[C@H](C(=O)O)C(C)C
What was measured:
293-GCC#2 tumors [1] = assay: Efficacy study with 5F9vcMMAF and 5F9-DMx in 293-GCC#2 s.c. tumors; format: in vivo; details: 293-GCC#2 bearing SCID mice, 75 and 150 ug/kg toxin, q14d schedule
Description: 5F9-SPDB-DM4, 5F9-SMCC-DM1 and 5F9vcMMAF were tested for efficacy in the 293-GCC#2 tumor model at two doses (75 μg/kg and 150 μg/kg toxin), on a q14d×5 schedule. Specifically, this study included vehicle-treated control, Sc209-DM1 (150 μg/kg DM1 eq), Sc209-DM4 (150 μg/kg DM4 eq), Sc209-vcMMAF (150 μg/kg MMAF eq), 5F9-DM1 (150 μg/kg DM1 eq), 5F9-DM1 (75 μg/kg DM1 eq), 5F9-DM4 (150 μg/kg DM4 eg), 5F9-DM4 (75 μg/kg DM4 eq), 5F9-vcMMAF (150 μg/kg MMAF eq), and 5F9-vcMMAF (75 μg/kg MMAF eq). Taconic females mice bearing 293-GCC#2 cells (10 mice per group) were used.
FIG. 1 depicts tumor growth in 293-GCC#2 bearing SCID mice treated with 5F9vc-MMAF, -DM1, and -DM4 on a q14d schedule. […] Therefore at these doses and schedules, 5F9-SPDB-DM4 had the greatest efficacious differential from its control conjugate.
5F9-SPDB-DM4 and 5F9-SMCC-DM1 were tested for efficacy in the 293-GCC#2 tumor model at two doses (75 ug/kg and 150 ug/kg toxin) on a q7d×5 schedule. Specifically, this study included vehicle-treated control, 5F9 alone (15 mg/kg), DM1 (300 μg/kg), DM4 (300 μg/kg), Sc209-DM1 (150 μg/kg DM1 eq), Sc209-DM4 (150 μg/kg DM4 eq), Sc209-vcMMAF (150 μg/kg MMAF eq), 5F9-DM1 (150 μg/kg DM1 eq), 5F9-DM1 (75 μg/kg DM1 eq), 5F9-DM4 (150 μg/kg DM4 eq), and 5F9-DM4 (75 μg/kg DM4 eq). Taconic females mice bearing 293-GCC#2 cells (10 mice per group) were used.

293-GCC#2 tumors [2] = assay: PD study: phosphohistone H3 positive tumor cells after single iv dose; format: in vivo, mice; details: 75 or 150 ug/kg toxin
Description: An alternative tumor model used 293-GCC#2 cells. A PD study for 5F9 ADCs in 293-GCC#2 tumor bearing mice was performed. Mice were dosed with single doses of 5F9vcMMAF at 75 ug/kg or 150 ug/kg and serum was taken at timepoints from 1 hr through 4 days for PD analysis of phosphohistone H3 to test antimitotic effects of the toxin on tumor cells. Phospho-histone H3 was detected by antibody (Upstate Biotechnology, now Millipore, Billerica, Mass.) staining of paraffin embedded sections of tumors.
Similar studies measured the phosphohistone levels in 293-GCC#2 tumor-bearing mice treated with 5F9vcMMAF, 5F9-SPDB-DM4 and 5F9-SMCC-DM1. Mice were dosed with single doses at 150 ug/kg and serum was taken at timepoints from 1 hr through 21 days for PK analysis of both total antibody and toxin-conjugated antibody. The percentage of phosphohistone H3 positive cells in 293-GCC#2 tumors increased in response to all three ADCS: 5F9vcMMAF, 5F9-SMCC-DM1 and 5F9-SPDB-DM4. Maximal phosphohistone H3 levels were 3- to 5-fold increased over baseline, with peaks at 24 hours post-injection.

CT26 hGCC/luc #32 cells = assay: Pilot efficacy study with naked antibody in CT26 hGCC/luc #32 disseminated model; details: 40 mg/kg
293 GCC#2 tumors = assay: Efficacy study with auristatin conjugates in 293 GCC#2 tumors; format: in vivo, SCID mice; set-up: TGI (tumor growth inhibition) / TGD (tumor growth delay): unit not given here
Description: 293 GCC#2 tumor-bearing SCID mice were treated with 5F9 conjugates with vc MMAE, vcMMAF or mcMMAF at three doses in comparison with 209 conjugates of these toxins or with free toxins or vehicle control. Doses were administered iv on a q7d×4 schedule. Tumors were harvested at days 3, 7, 10, 13 and 17. […] Table 18 provides a summary of the results (TGI=tumor growth inhibition, T/C=treatment/control, TGD=tumor growth delay, CR/PR=complete response/partial response; p value=measure to judge statistical significance, NS=not significant).
All three of these ADCs were efficacious in the 293 GCC#2 model on a q7d schedule.

[3] = tested on: PHTX-9c primary human colon tumor xenograft; assay: Antitumor activity in PHTX-9c primary human colon tumor xenograft (Study A and Study B); format: in vivo, CB-17 SCID mice
Description: Female CB-17 SCID mice (eight weeks old) were inoculated subcutaneously (SC) into the flank with PHTX-9c tumor fragments (2 mm×2 mm). Tumor growth was monitored twice per week using vernier calipers and the mean tumor volume was calculated using the formula (0.5×[length×width^2]). When the mean tumor volume reached approximately 150 mm^3 (Study A) or 160 mm^3 (Study B), animals were randomized into treatment groups (n=10/group for Study A and n=9/group for Study B).
Doses were administered on Days 1, 8, and 15 for the QW schedule and Days 1, 4, 8, 11, 15, and 18 for the BIW schedule. […] The equivalent dose of linker+MMAE is 4% of the 5F9-vcMMAE dose. These calculations are based on a mean 3.9 MMAE molecules per antibody and a free antibody molecular weight of 150 kD. Actual antibody molecular weight will vary slightly due to degree of glycosylation.
Tumor volume and body weight were measured twice weekly and were continued beyond the treatment period to measure regrowth kinetics, as evidenced by tumor growth delay (TGD). Tumor volume measurements were continued until tumor volume reached 10% of the body weight in a single mouse within a treatment group, at which time the group was terminated. The percentage of tumor growth inhibition (TGI) ([mean tumor volume of the control group−mean tumor volume of a treated group]/mean tumor volume of the control group; a T/C ratio) was determined on Day 20. The T/C ratios across a treatment group were compared to the T/C ratios of the control group using a two-tailed Welch's t-test.
The differences in the tumor growth trends over time between pairs of treatment groups were assessed using linear mixed effects regression models. These models account for the fact that each animal was measured at multiple time points. A separate model was fit for each comparison, and the areas under the curve (AUC) for each treatment group were calculated using the predicted values from the model. The percent decrease in AUC (dAUC) relative to the reference group was then calculated.

HT29-GCC#5 tumors = assay: Pilot efficacy studies in HT29-GCC#5 s.c. tumors; format: in vivo, mice; details: 150 μg/kg on a q3d×5 schedule
Description: Studies were performed to determine efficacious conjugates and dosage regimens in mice bearing HT29-GCC#5 tumors. Mice were dosed with single or multiple doses. These studies determined that there was toxicity at too frequent dosing at higher levels of toxin conjugate (e.g., 150 μg/kg 5F9vcMMAF on a q3d×5 schedule). Another study determined that q14d×5 schedule was too infrequent in this model to allow some toxin conjugates to show significant efficacy vs. controls.

293 GCC#2 cells = format: cell-based, human; details: 293 cell model (293 GCC#2 vs control cells / 209 ADCs)
HT29 GCC#5 cells = format: cell-based, human; details: HT29 cell model

## 5F9-SMCC-DM1: 5F9 conjugated to DM1 using SMCC heterobifunctional crosslinker
293-GCC#2 tumors [1]
  Tumor growth (efficacy): efficacious, however less so than 5F9-SPDB-DM4 at 150 ug/kg
293-GCC#2 tumors [2]
  Percentage of phosphohistone H3 positive cells in 293-GCC#2 tumors: increased

## sc209: human IgG1 monoclonal antibody raised against an unrelated target, with no reactivity to GCC; negative control [reference compound]
CT26 hGCC/luc #32 cells
  T/C compared to 0.9% NaCl group: 0.64
CT26 hGCC/luc #32 cells; end of study
  Lung weight, T test P vs. vehicle: 0.4

## CC[C@H](C)[C@@H]([C@@H](CC(=O)N1CCC[C@H]1[C@H](OC)[C@@H](C)C(=O)N[C@@H](Cc1ccccc1)C(=O)O)OC)N(C)C(=O)[C@@H](NC(=O)[C@H](C(C)C)N(C)C(=O)CCCCCN1C(=O)C=CC1=O)C(C)C [Free mcMMAF] ({Hexanoyl(6-maleimido)}-[NMeV]V[Dil][Dolaproine]F-OH)
293 GCC#2 tumors; 150 μg/kg iv q7d×4
  CR/PR (complete response/partial response): 0
  T/C (treatment/control): 1.03
  TGD (tumor growth delay): −1.3
  TGI (tumor growth inhibition): −3.4

## CC[C@H](C)[C@@H]([C@@H](CC(=O)N1CCC[C@H]1[C@H](OC)[C@@H](C)C(=O)N[C@H](C)[C@@H](O)c1ccccc1)OC)N(C)C(=O)[C@@H](NC(=O)[C@@H](NC)C(C)C)C(C)C [MMAE, monomethyl auristatin E] (H-[NMeV]V[Dil][Dolaproine]-X1)
[3]; 0.075 mg/kg IV QW
  TGI: no tumor growth inhibition
[3]; 0.135 mg/kg IV QW
  TGI: no tumor growth inhibition
[3]; 0.15 mg/kg IV QW
  TGI: no tumor growth inhibition
[3]; Study A, 0.075 mg/kg IV QW × 3 doses, Day 20
  TGI: 5.0 (p > 0.05) %
[3]; Study A, 0.15 mg/kg IV QW × 3 doses, Day 20
  TGI: 11.1 (p > 0.05) %
[3]; Study B, 0.135 mg/kg IV QW × 3 doses, determined on Day 20
  TGI: 2.2 (p > 0.05) %

## CC[C@H](C)[C@@H]([C@@H](CC(=O)N1CCC[C@H]1[C@H](OC)[C@@H](C)C(=O)N[C@H](C)[C@@H](O)c1ccccc1)OC)N(C)C(=O)[C@@H](NC(=O)[C@@H](NC)C(C)C)C(C)C [Free MMAE] (H-[NMeV]V[Dil][Dolaproine]-X1)
293 GCC#2 tumors; 300 μg/kg iv q7d×4
  CR/PR (complete response/partial response): 0
  T/C (treatment/control): 0.64
  TGD (tumor growth delay): 2
  TGI (tumor growth inhibition): 35.6

## 5F9-vcMMAE: 5F9 mAb conjugated to MMAE through the vc (Val-Cit) linker; average drug loading about 3.6
293 GCC#2 tumors; 75 μg/kg iv q7d×4
  T/C (treatment/control): 0.45
  TGD (tumor growth delay): 4.4
  TGI (tumor growth inhibition): 54.5
293 GCC#2 tumors; 150 μg/kg iv q7d×4
  T/C (treatment/control): 0.17
  TGI (tumor growth inhibition): 83.5
293 GCC#2 tumors; 300 μg/kg iv q7d×4
  T/C (treatment/control): 0.03
  TGI (tumor growth inhibition): 96.9

## 5F9-vcMMAF: 5F9 anti-GCC antibody molecule conjugated with mc-vc-MMAF
293 GCC#2 tumors; 37.5 μg/kg iv q7d×4
  T/C (treatment/control): 0.35
  TGD (tumor growth delay): 7.1
  TGI (tumor growth inhibition): 65.2
293 GCC#2 tumors; 75 μg/kg iv q7d×4
  T/C (treatment/control): 0.12
  TGI (tumor growth inhibition): 88.5
293 GCC#2 tumors; 150 μg/kg iv q7d×4
  T/C (treatment/control): 0.03
  TGI (tumor growth inhibition): 97
293 GCC#2 tumors; 293 GCC#2 model, iv, q7d×4 schedule
  Tumor growth inhibition (efficacy): more potent than 5F9-vcMMAE
HT29-GCC#5 tumors
  Toxicity: toxicity
293-GCC#2 tumors [1]
  Tumor growth (efficacy): the most efficacious
293 GCC#2 cells
  Target enhanced cell kill: target enhanced cell kill
293-GCC#2 tumors [2]
  Percentage of phosphohistone H3 positive cells in 293-GCC#2 tumors: increased
HT29 GCC#5 cells
  Target enhanced cell kill: target enhanced cell kill

Reference: US8785600B2, “Anti-GCC antibody molecules and related compositions and methods” (Millennium Pharmaceuticals, Inc., priority 2009, dated 2014)
